Conditions: mouse, in vivo

Fe3O4
half-life in blood: prolonged
